One test concerns the target Mcl-1 protein (UniProtKB primary accession number: Q07820) (Homo sapiens, UniProt Q07820). As to the kind of experiment: Inhibition of Mcl-1 by fluorescence polarisation, Method 1. Type of test: binding. As to conditions: read-out: IC50 (M) Mcl-1 FP. A digest of the protocol: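 Fluorescence polarisation competition with an 11-point compound dilution series (final DMSO 5%). Mcl-1 protein at 5 nM and fluorescein-labelled ligand at 1 nM (final) in 10 mM HEPES, 150 mM NaCl, 0.05% Tween 20, pH 7.4.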
(In general: In fluorescence polarisation assays a small probe gives low polarisation when free and higher when bound to something large.)

Test [1] deals with H929 multiple myeloma tumour line. As to the kind of experiment: In vitro cytotoxicity, Microculture Tetrazolium Assay. As to conditions: Homo sapiens, NCI-H929, 48 h, H929 cells, 48 hours exposure, MTT; read-out: IC50 (μM) MTT H929. Type of test: cell-based. The protocol:
The cytotoxicity studies were carried out on the H929 multiple myeloma tumour line.
The cells are distributed onto microplates and exposed to the test compounds for 48 hours.

Where [2] appears, read: fluorescence polarisation test, Method 2 values are underlined in the patent (underlining not visible here).
The mark [3] stands for this setting: fluorescence polarisation, Method 1, or Method 2.

Like-named read-outs stand apart in the source and are kept apart here.

For orientation: IC50 means the concentration that gives 50% inhibition.

Chain of Mcl-1 protein (Q07820 whole entry): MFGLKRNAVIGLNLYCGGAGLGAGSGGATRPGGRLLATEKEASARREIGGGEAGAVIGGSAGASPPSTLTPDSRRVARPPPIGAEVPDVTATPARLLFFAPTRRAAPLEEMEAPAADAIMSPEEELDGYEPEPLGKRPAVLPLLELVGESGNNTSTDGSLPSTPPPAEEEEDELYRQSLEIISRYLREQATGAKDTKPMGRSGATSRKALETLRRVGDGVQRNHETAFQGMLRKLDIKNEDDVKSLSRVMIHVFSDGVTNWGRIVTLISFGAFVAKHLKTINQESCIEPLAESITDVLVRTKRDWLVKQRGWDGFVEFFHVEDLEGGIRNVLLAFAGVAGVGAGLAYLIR

As to `Cc1c(-c2c(-c3ccc(F)o3)sc3ncnc(OC(Cc4ccccc4OCC(=O)NCCc4ccccc4)C(=O)O)c23)ccc(OCCN2CCN(C)CC2)c1Cl` [Example 155, (2R)-2-{[(5Sa)-5-{3-chloro-2-methyl-4-[2-(4-methylpiperazin-1-yl)ethoxy]phenyl}-6-(5-fluorofuran-2-yl)thieno[2,3-d]pyrimidin-4-yl]oxy}-3-(2-{2-oxo-2-[(2-phenylethyl)amino]ethoxy}phenyl)propanoic acid], the results for the IC50 (at Mcl-1 protein (setting [2]); in test [1]) were 7.6e-09 M and 0.189 µM, respectively.
The like results for `Cc1c(-c2c(-c3ccc(F)cc3)sc3ncnc(OC(Cc4ccccc4OCc4cocn4)C(=O)O)c23)ccc(OCCN2CCN(C)CC2)c1Cl` [Example 98, (2R)-2-{[(5Sa)-5-{3-chloro-2-methyl-4-[2-(4-methylpiperazin-1-yl)ethoxy]phenyl}-6-(4-fluorophenyl)thieno[2,3-d]pyrimidin-4-yl]oxy}-3-[2-(1,3-oxazol-4-ylmethoxy)phenyl]propanoic acid] were, in that order, 3.3e-07 M and 0.118 µM.
The matching figures for `Cc1c(-c2c(-c3ccc(F)cc3)sc3ncnc(OC(Cc4ccccc4OCc4ccnc(COc5ccccc5)n4)C(=O)O)c23)ccc(OCCN2CCN(C)CC2)c1Cl` [Example 46, (2R)-2-{[(5Sa)-5-{3-chloro-2-methyl-4-[2-(4-methylpiperazin-1-yl)ethoxy]phenyl}-6-(4-fluorophenyl)thieno[2,3-d]pyrimidin-4-yl]oxy}-3-(2-{[2-(phenoxymethyl)pyrimidin-4-yl]methoxy}phenyl)propanoic acid]: 7.3e-09 M and 0.024 µM.
For the molecule `COc1cc(COc2ccccc2CC(Oc2ncnc3sc(-c4ccc(F)cc4)c(-c4ccc(OCCN5CCN(C)CC5)c(Cl)c4C)c23)C(=O)O)ccn1` [Example 21, (2R)-2-{[(5Sa)-5-{3-chloro-2-methyl-4-[2-(4-methylpiperazin-1-yl)ethoxy]phenyl}-6-(4-fluorophenyl)thieno[2,3-d]pyrimidin-4-yl]oxy}-3-{2-[(2-methoxypyridin-4-yl)methoxy]phenyl}propanoic acid], the concentration for half-maximal inhibition (IC50) worked out at 1.6e-08 M on Mcl-1 protein (setting [2]) and 0.162 µM in test [1].
The like results for `Cc1c(-c2c(-c3ccc(F)cc3)sc3ncnc(OC(Cc4ccccc4OCCF)C(=O)O)c23)ccc(OCCN2CCN(C)CC2)c1Cl` [Example 103, (2R)-2-{[(5Sa)-5-{3-chloro-2-methyl-4-[2-(4-methylpiperazin-1-yl)ethoxy]phenyl}-6-(4-fluorophenyl)thieno[2,3-d]pyrimidin-4-yl]oxy}-3-[2-(2-fluoroethoxy)phenyl]propanoic acid] were, in that order, 2.4e-08 M and 0.214 µM.
With `CCCCCn1nccc1C(C)Oc1ccccc1CC(Oc1ncnc2sc(-c3ccc(F)cc3)c(-c3ccc(OCCN4CCN(C)CC4)c(Cl)c3C)c12)C(=O)O` (single isomer, unassigned) [Example 5, (2R)-2-{[(5Sa)-5-{3-chloro-2-methyl-4-[2-(4-methylpiperazin-1-yl)ethoxy]phenyl}-6-(4-fluorophenyl)thieno[2,3-d]pyrimidin-4-yl]oxy}-3-{2-[(1R or S)-1-(1-pentyl-1H-pyrazol-5-yl)ethoxy]phenyl}propanoic acid], the IC50 stood at 6.2e-09 M on Mcl-1 protein (setting [2]) and 0.418 µM in test [1].
The like results for `CCc1nccc(COc2ccccc2CC(Oc2ncnc3sc(-c4ccc(F)cc4)c(-c4ccc(OCCN5CCN(C)CC5)c(Cl)c4C)c23)C(=O)O)n1` [Example 37, (2R)-2-{[(5Sa)-5-{3-chloro-2-methyl-4-[2-(4-methylpiperazin-1-yl)ethoxy]phenyl}-6-(4-fluorophenyl)thieno[2,3-d]pyrimidin-4-yl]oxy}-3-{2-[(2-ethylpyrimidin-4-yl)methoxy]phenyl}propanoic acid] were, in that order, 6e-09 M and 0.014 µM.
The like results for `Cc1c(-c2c(-c3ccco3)sc3ncnc(OC(Cc4ccccc4OCc4ccn(C)n4)C(=O)O)c23)ccc(OCCN2CCN(C)CC2)c1Cl` [Example 246, (2R)-2-{[(5Sa)-5-{3-chloro-2-methyl-4-[2-(4-methylpiperazin-1-yl)ethoxy]phenyl}-6-(furan-2-yl)thieno[2,3-d]pyrimidin-4-yl]oxy}-3-{2-[(1-methyl-1H-pyrazol-3-yl)methoxy]phenyl}propanoic acid] were, in that order, 9.1e-09 M and 0.324 µM.
The matching figures for `COc1ccc(-c2nccc(COc3ccccc3CC(Oc3ncnc4sc(-c5ccc(F)cc5)c(-c5ccc(OCCN6CCN(C)CC6)c(Cl)c5C)c34)C(=O)O)n2)cc1` [Example 107, (2R)-2-{[(5Sa)-5-{3-chloro-2-methyl-4-[2-(4-methylpiperazin-1-yl)ethoxy]phenyl}-6-(4-fluorophenyl)thieno[2,3-d]pyrimidin-4-yl]oxy}-3-(2-{[2-(4-methoxyphenyl)pyrimidin-4-yl]methoxy}phenyl)propanoic acid]: 5.3e-09 M and 0.007 µM.
For the molecule `COc1ccc(C)cc1CC(Oc1ncnc2sc(-c3ccco3)c(-c3ccc(OCCN4CCN(C)CC4)c(Cl)c3C)c12)C(=O)O` [Example 344, (2R)-2-{[(5Sa)-5-{3-chloro-2-methyl-4-[2-(4-methylpiperazin-1-yl)ethoxy]phenyl}-6-(furan-2-yl)thieno[2,3-d]pyrimidin-4-yl]oxy}-3-(2-methoxy-5-methylphenyl)propanoic acid], the values for the IC50 (at Mcl-1 protein (setting [2]); in test [1]) were 1.6e-08 M and 0.22 µM, respectively.
`COc1nccc(COc2ccccc2CC(Oc2ncnc3sc(-c4ccc(F)cc4)c(-c4cnc(OCCN5CCN(C)CC5)c(Cl)c4C)c23)C(=O)O)n1` [Example 651, (2R)-2-{[(5Ra)-5-{5-chloro-4-methyl-6-[2-(4-methylpiperazin-1-yl)ethoxy]pyridin-3-yl}-6-(4-fluorophenyl)thieno[2,3-d]pyrimidin-4-yl]oxy}-3-{2-[(2-methoxypyrimidin-4-yl)methoxy]phenyl}propanoic acid]: the IC50 is 6.8e-09 M at Mcl-1 protein (setting [3]) and 0.282 µM in test [1].
As to `Cc1cc(COc2ccccc2CC(Oc2ncnc3sc(-c4ccc(F)cc4)c(-c4ccc(OCCN5CCN(C)CC5)c(Cl)c4C)c23)C(=O)O)ccn1` [Example 16, (2R)-2-{[(5Sa)-5-{3-chloro-2-methyl-4-[2-(4-methylpiperazin-1-yl)ethoxy]phenyl}-6-(4-fluorophenyl)thieno[2,3-d]pyrimidin-4-yl]oxy}-3-{2-[(2-methylpyridin-4-yl)methoxy]phenyl}propanoic acid], the IC50 on Mcl-1 protein (setting [2]) came to 5.9e-09 M; in test [1], 0.095 µM.
The like results for `Cc1cc(-c2nccc(COc3ccccc3CC(Oc3ncnc4sc(-c5ccc(F)cc5)c(-c5ccc(OCCN(C)C)c(Cl)c5C)c34)C(=O)O)n2)ccn1` [Example 136, (2R)-2-{[(5Sa)-5-{3-chloro-4-[2-(dimethylamino)ethoxy]-2-methylphenyl}-6-(4-fluorophenyl)thieno[2,3-d]pyrimidin-4-yl]oxy}-3-(2-{[2-(2-methylpyridin-4-yl)pyrimidin-4-yl]methoxy}phenyl)propanoic acid] were, in that order, 7.7e-09 M and 0.015 µM.
The matching figures for `Cc1c(-c2c(-c3ccc(F)cc3)sc3ncnc(OC(Cc4ccccc4OCc4ccnn4C4CCCCC4)C(=O)O)c23)ccc(OCCN2CCN(C)CC2)c1Cl` [Example 73, (2R)-2-{[(5Sa)-5-{3-chloro-2-methyl-4-[2-(4-methylpiperazin-1-yl)ethoxy]phenyl}-6-(4-fluorophenyl)thieno[2,3-d]pyrimidin-4-yl]oxy}-3-{2-[(1-cyclohexyl-1H-pyrazol-5-yl)methoxy]phenyl}propanoic acid]: 8.3e-09 M and 0.122 µM.
In the case of `Cc1c(-c2c(-c3ccc(F)cc3)sc3ncnc(OC(Cc4ccccc4OCc4ccnn4C4CCOCC4)C(=O)O)c23)ccc(OCCN2CCN(C)CC2)c1Cl` [Example 75, (2R)-2-{[(5Sa)-5-{3-chloro-2-methyl-4-[2-(4-methylpiperazin-1-yl)ethoxy]phenyl}-6-(4-fluorophenyl)thieno[2,3-d]pyrimidin-4-yl]oxy}-3-(2-{[1-(tetrahydro-2H-pyran-4-yl)-1H-pyrazol-5-yl]methoxy}phenyl)propanoic acid], the half-inhibitory concentration (IC50) at Mcl-1 protein (setting [2]) was 4e-09 M; in test [1] it was 0.11 µM.
The matching figures for `Cc1c(-c2c(-c3ccco3)sc3ncnc(OC(Cc4ccccc4OCc4cncs4)C(=O)O)c23)ccc(OCCN2CCN(C)CC2)c1Cl` [Example 278, (2R)-2-{[(5Sa)-5-{3-chloro-2-methyl-4-[2-(4-methylpiperazin-1-yl)ethoxy]phenyl}-6-(furan-2-yl)thieno[2,3-d]pyrimidin-4-yl]oxy}-3-[2-(1,3-thiazol-5-ylmethoxy)phenyl]propanoic acid]: 6.7e-09 M and 0.202 µM.
Consider `COCOc1cc(F)ccc1CC(Oc1ncnc2sc(-c3ccc(F)o3)c(-c3ccc(OCCN4CCN(C)CC4)c(Cl)c3C)c12)C(=O)O` [Example 690, (2R)-2-{[(5Sa)-5-{3-chloro-2-methyl-4-[2-(4-methylpiperazin-1-yl)ethoxy]phenyl}-6-(5-fluorofuran-2-yl)thieno[2,3-d]pyrimidin-4-yl]oxy}-3-[4-fluoro-2-(methoxymethoxy)phenyl]propanoic acid], for which the IC50 on Mcl-1 protein (setting [3]) turned out to be 2.3e-08 M; in test [1], 0.178 µM.
As for `COc1ccccc1-c1nccc(COc2ccccc2CC(Oc2ncnc3sc(C#CCOc4ccccc4)c(-c4ccc(OCCN5CCN(C)CC5)c(Cl)c4C)c23)C(=O)O)n1` [Example 782, (2R)-2-{[(5Sa)-5-{3-chloro-2-methyl-4-[2-(4-methylpiperazin-1-yl)ethoxy]phenyl}-6-(3-phenoxyprop-1-yn-1-yl)thieno[2,3-d]pyrimidin-4-yl]oxy}-3-(2-{[2-(2-methoxyphenyl)pyrimidin-4-yl]methoxy}phenyl)propanoic acid], the IC50 at Mcl-1 protein (setting [3]) was found to be 1.68e-09 M; in test [1], 0.057 µM.
